Laboratory results as given in ChEMBL document CHEMBL3885881, “DrugMatrix”.

Tests used:
Rattus norvegicus [1] = species: Rattus norvegicus; assay type: toxicity, organism-based, Sprague-Dawley; conditions: in vivo, po, 500 mg/kg, 24 h, route oral GAVAGE, dose level High, time 1 day, vehicle .5 % CMC
Description: DrugMatrix - Regimen: Single

Rattus norvegicus [2] = species: Rattus norvegicus; assay: DrugMatrix - Regimen: Daily Repeat; assay type: toxicity, organism-based, Sprague-Dawley; set-up: regimen Daily Repeat, gender Male, age 6-8 weeks; conditions: in vivo, po, 500 mg/kg, route oral GAVAGE, dose level High, vehicle .5 % CMC; for ABSOLUTE BASOPHIL / ABSOLUTE EOSINOPHIL / ABSOLUTE LYMPHOCYTE / ABSOLUTE MONOCYTE / ABSOLUTE SEGMENTED NEUTROPHIL / BASOPHIL / EOSINOPHIL / ERYTHROCYTE COUNT / HEMATOCRIT / HEMOGLOBIN / LEUKOCYTE COUNT / LYMPHOCYTE / MEAN CORPUSCULAR HEMOGLOBIN / MEAN CORPUSCULAR HEMOGLOBIN CONCENTRATION / MEAN CORPUSCULAR VOLUME / MONOCYTE / NEUTROPHIL / NUCLEATED RED BLOOD CELLS / PLATELET COUNT: tissue Blood; for ALANINE AMINOTRANSFERASE / ALBUMIN / ALKALINE PHOSPHATASE / ASPARTATE AMINOTRANSFERASE / BLOOD UREA NITROGEN / CARBON DIOXIDE / CHLORIDE / CHOLESTEROL / CREATININE / GLUCOSE / LACTATE DEHYDROGENASE / LIPASE / PHOSPHORUS / POTASSIUM / SODIUM / TOTAL BILIRUBIN / TOTAL PROTEIN / URIC ACID: tissue Plasma

## Clc1ccccc1 [CHLOROBENZENE]
Rattus norvegicus [1]; tissue Blood
  ABSOLUTE EOSINOPHIL: 0 CELLS/uL
  ABSOLUTE LYMPHOCYTE: 9295.67 CELLS/uL
  ABSOLUTE MONOCYTE: 616 CELLS/uL
  ABSOLUTE SEGMENTED NEUTROPHIL: 1621.67 CELLS/uL
  BASOPHIL: 0%
  EOSINOPHIL: 0%
  ERYTHROCYTE COUNT: 6.3 x10E6/uL
  HEMATOCRIT: 39.37%
  HEMOGLOBIN: 14.03 G/DL
  LEUKOCYTE COUNT: 11.53 x10E3/uL
  LYMPHOCYTE: 80.67%
  MEAN CORPUSCULAR HEMOGLOBIN: 22.3 pg
  MEAN CORPUSCULAR HEMOGLOBIN CONCENTRATION: 35.67 G/DL
  MEAN CORPUSCULAR VOLUME: 62.53 fL
  MONOCYTE: 5.33%
  NEUTROPHIL: 14%
  NUCLEATED RED BLOOD CELLS: 0 /100WBC
  PLATELET COUNT: 1230.33 x10E3/uL
Rattus norvegicus [1]; tissue Plasma
  ALANINE AMINOTRANSFERASE: 176 u/L
  ALBUMIN: 4.43 G/DL
  ALKALINE PHOSPHATASE: 416.33 u/L
  ASPARTATE AMINOTRANSFERASE: 280 u/L
  BLOOD UREA NITROGEN: 20 mg/dL
  CARBON DIOXIDE: 28.67 mmol/L
  CHLORIDE: 99.33 MEQ/L
  CHOLESTEROL: 69.67 mg/dL
  CREATININE: 0.23 mg/dL
  GLUCOSE: 154.33 mg/dL
  LACTATE DEHYDROGENASE: 419.67 u/L
  LIPASE: 10.67 u/L
  PHOSPHORUS: 12.9 mg/dL
  POTASSIUM: 5.56 MEQ/L
  SODIUM: 146.57 MEQ/L
  TOTAL BILIRUBIN: 0.23 mg/dL
  TOTAL PROTEIN: 6.53 G/DL
  URIC ACID: 1.4 mg/dL
Rattus norvegicus [2]; 72 h, time 3 day
  ABSOLUTE BASOPHIL: 0 CELLS/uL
  ABSOLUTE EOSINOPHIL: 274.33 CELLS/uL
  ABSOLUTE LYMPHOCYTE: 9310 CELLS/uL
  ABSOLUTE MONOCYTE: 211.33 CELLS/uL
  ABSOLUTE SEGMENTED NEUTROPHIL: 771 CELLS/uL
  BASOPHIL: 0%
  EOSINOPHIL: 2.33%
  ERYTHROCYTE COUNT: 6.63 x10E6/uL
  HEMATOCRIT: 39.23%
  HEMOGLOBIN: 14.07 G/DL
  LEUKOCYTE COUNT: 10.57 x10E3/uL
  LYMPHOCYTE: 88.33%
  MEAN CORPUSCULAR HEMOGLOBIN: 21.2 pg
  MEAN CORPUSCULAR HEMOGLOBIN CONCENTRATION: 35.9 G/DL
  MEAN CORPUSCULAR VOLUME: 59.17 fL
  MONOCYTE: 2%
  NEUTROPHIL: 7.33%
  NUCLEATED RED BLOOD CELLS: 0 /100WBC
  PLATELET COUNT: 768.67 x10E3/uL
  ALANINE AMINOTRANSFERASE: 64 u/L
  ALBUMIN: 4.1 G/DL
  ALKALINE PHOSPHATASE: 361.67 u/L
  ASPARTATE AMINOTRANSFERASE: 100.33 u/L
  BLOOD UREA NITROGEN: 17.67 mg/dL
  CARBON DIOXIDE: 26.33 mmol/L
  CHLORIDE: 103.33 MEQ/L
  CHOLESTEROL: 86.67 mg/dL
  CREATININE: 0.21 mg/dL
  GLUCOSE: 184.33 mg/dL
  LACTATE DEHYDROGENASE: 325.33 u/L
  LIPASE: 9.67 u/L
  PHOSPHORUS: 14.17 mg/dL
  POTASSIUM: 5.77 MEQ/L
  SODIUM: 147.63 MEQ/L
  TOTAL BILIRUBIN: 0.17 mg/dL
  TOTAL PROTEIN: 5.83 G/DL
  URIC ACID: 2.13 mg/dL
Rattus norvegicus [2]; 120 h, time 5 day
  ABSOLUTE BASOPHIL: 0 CELLS/uL
  ABSOLUTE EOSINOPHIL: 83.67 CELLS/uL
  ABSOLUTE LYMPHOCYTE: 5790.33 CELLS/uL
  ABSOLUTE MONOCYTE: 83 CELLS/uL
  ABSOLUTE SEGMENTED NEUTROPHIL: 376.33 CELLS/uL
  BASOPHIL: 0%
  EOSINOPHIL: 1.33%
  ERYTHROCYTE COUNT: 6.34 x10E6/uL
  HEMATOCRIT: 37.73%
  HEMOGLOBIN: 13.57 G/DL
  LEUKOCYTE COUNT: 6.33 x10E3/uL
  LYMPHOCYTE: 91.33%
  MEAN CORPUSCULAR HEMOGLOBIN: 21.37 pg
  MEAN CORPUSCULAR HEMOGLOBIN CONCENTRATION: 35.9 G/DL
  MEAN CORPUSCULAR VOLUME: 59.6 fL
  MONOCYTE: 1.33%
  NEUTROPHIL: 6%
  NUCLEATED RED BLOOD CELLS: 0 /100WBC
  PLATELET COUNT: 998.67 x10E3/uL
  ALANINE AMINOTRANSFERASE: 58 u/L
  ALBUMIN: 4.13 G/DL
  ALKALINE PHOSPHATASE: 325 u/L
  ASPARTATE AMINOTRANSFERASE: 91 u/L
  BLOOD UREA NITROGEN: 16 mg/dL
  CARBON DIOXIDE: 31.67 mmol/L
  CHLORIDE: 102.67 MEQ/L
  CHOLESTEROL: 68 mg/dL
  CREATININE: 0.19 mg/dL
  GLUCOSE: 160.67 mg/dL
  LACTATE DEHYDROGENASE: 181.33 u/L
  LIPASE: 9.33 u/L
  PHOSPHORUS: 11.9 mg/dL
  POTASSIUM: 5.74 MEQ/L
  SODIUM: 150.1 MEQ/L
  TOTAL BILIRUBIN: 0.2 mg/dL
  TOTAL PROTEIN: 6.07 G/DL
  URIC ACID: 1.8 mg/dL
Rattus norvegicus [2]; […], time 14 day
  ABSOLUTE BASOPHIL: 0 CELLS/uL
  ABSOLUTE EOSINOPHIL: 209.6 CELLS/uL
  ABSOLUTE LYMPHOCYTE: 11694.6 CELLS/uL
  ABSOLUTE MONOCYTE: 390 CELLS/uL
  ABSOLUTE SEGMENTED NEUTROPHIL: 1365.8 CELLS/uL
  BASOPHIL: 0%
  EOSINOPHIL: 1.4%
  ERYTHROCYTE COUNT: 6.07 x10E6/uL
  HEMATOCRIT: 35.18%
  HEMOGLOBIN: 13 G/DL
  LEUKOCYTE COUNT: 13.86 x10E3/uL
  LYMPHOCYTE: 85.2%
  MEAN CORPUSCULAR HEMOGLOBIN: 21.48 pg
  MEAN CORPUSCULAR HEMOGLOBIN CONCENTRATION: 37 G/DL
  MEAN CORPUSCULAR VOLUME: 58.06 fL
  MONOCYTE: 3%
  NEUTROPHIL: 10.4%
  NUCLEATED RED BLOOD CELLS: 0 /100WBC
  PLATELET COUNT: 916.8 x10E3/uL
  ALANINE AMINOTRANSFERASE: 59 u/L
  ALBUMIN: 4.22 G/DL
  ALKALINE PHOSPHATASE: 464.4 u/L
  ASPARTATE AMINOTRANSFERASE: 88.8 u/L
  BLOOD UREA NITROGEN: 16 mg/dL
  CARBON DIOXIDE: 28.4 mmol/L
  CHLORIDE: 102.2 MEQ/L
  CHOLESTEROL: 70.2 mg/dL
  CREATININE: 0.16 mg/dL
  GLUCOSE: 130.8 mg/dL
  LACTATE DEHYDROGENASE: 283.8 u/L
  LIPASE: 10.2 u/L
  PHOSPHORUS: 11.26 mg/dL
  POTASSIUM: 6.64 MEQ/L
  SODIUM: 147.56 MEQ/L
  TOTAL BILIRUBIN: 0.28 mg/dL
  TOTAL PROTEIN: 6.16 G/DL
  URIC ACID: 1.56 mg/dL
